Test results: patent US6846823B2, “Method of treating lower urinary tract disorders” (Dynogen Pharmaceuticals, Inc., priority 2003, dated 2005)
pIC50, pKi: −log10 of the molar value.

Tests used:
5-HT3 receptor = target: T1, 5-HT3 receptor (Mus musculus, UniProt P23979); conditions: radioligand binding; read-out: Ki, affinity for the 5-HT3 receptor; cited from earlier work
T1 construct: host or cells: N1E-115 mouse neuroblastoma cells
T1 sequence (P23979 24-489): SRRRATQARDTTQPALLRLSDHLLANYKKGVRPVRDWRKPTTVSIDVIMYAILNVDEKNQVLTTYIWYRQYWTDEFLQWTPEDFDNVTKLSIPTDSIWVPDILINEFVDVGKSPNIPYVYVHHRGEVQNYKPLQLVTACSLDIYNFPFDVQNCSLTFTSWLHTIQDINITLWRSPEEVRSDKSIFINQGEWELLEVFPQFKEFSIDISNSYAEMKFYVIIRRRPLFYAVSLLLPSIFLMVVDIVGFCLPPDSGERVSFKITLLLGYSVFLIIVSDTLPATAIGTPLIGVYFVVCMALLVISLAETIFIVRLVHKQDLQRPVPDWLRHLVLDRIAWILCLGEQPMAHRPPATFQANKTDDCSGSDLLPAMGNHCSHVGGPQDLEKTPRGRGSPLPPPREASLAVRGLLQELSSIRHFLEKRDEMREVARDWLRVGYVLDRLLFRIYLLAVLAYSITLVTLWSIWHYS

[1] = tested on: α1, α2, β1, β2, 5-HT1, 5-HT1A, 5-HT1C, 5-HT2, 5-HT4, 5-HT6, 5-HT7, D1, D2, Muscarinic, M1, M2, M3, Nicotonic, H1, H2, GABA-A, GABA-B, BZP, Opiate …; conditions: all receptors of the panel other than 5-HT3; read-out: IC50, binding to the additional receptors tested; cited from earlier work
[2] = target: T2, Monoamine Oxidase-A (MAO-A) (Homo sapiens, UniProt P21397); conditions: cited from earlier work
T2 sequence (P21397 1-527): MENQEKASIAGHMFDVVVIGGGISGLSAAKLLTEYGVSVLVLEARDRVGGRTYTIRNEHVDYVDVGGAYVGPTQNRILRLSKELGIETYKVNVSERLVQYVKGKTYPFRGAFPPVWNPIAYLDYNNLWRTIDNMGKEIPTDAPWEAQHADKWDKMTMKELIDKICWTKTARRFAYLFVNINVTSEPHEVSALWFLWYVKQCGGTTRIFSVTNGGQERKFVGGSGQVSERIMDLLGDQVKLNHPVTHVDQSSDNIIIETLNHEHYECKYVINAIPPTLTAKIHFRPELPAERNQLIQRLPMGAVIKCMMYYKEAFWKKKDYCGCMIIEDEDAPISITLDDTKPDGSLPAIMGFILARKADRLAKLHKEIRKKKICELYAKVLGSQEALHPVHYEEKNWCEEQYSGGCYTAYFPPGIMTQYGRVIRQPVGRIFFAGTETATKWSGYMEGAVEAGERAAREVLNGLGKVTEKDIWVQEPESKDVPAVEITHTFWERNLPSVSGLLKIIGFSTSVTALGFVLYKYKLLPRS

muscarinic receptors = conditions: cited from earlier work
[3] = tested on: bladder capacity during acetic acid irritation; assay: Dilute Acetic Acid Model-Cats, cystometry; assay type: in vivo, cat
Description: Six alpha-chloralose anesthetized (50-100 mg/kg) normal female cats (2.5-3.5 kg; Harlan) were utilized in this study.
MCI-225 was dissolved in 5% methylcellulose in water at 3.0, 10.0 or 30 mg/ml Animals were dosed by volume of injection=body weight in kg.
Female cats (2.5-3.5 kg; Harlan) had their food removed the night before the study. The following morning, the cats were anesthetized with isoflurane and prepped for surgery using aseptic technique. Polyethylene catheters were surgically placed to permit the measurement of bladder pressure, urethral pressure, arterial pressure, respiratory rate as well as for the delivery of drugs. Fine wire electrodes were implanted alongside the external urethral anal sphincter. Following surgery, the cats were slowly switched from the gas anesthetic isoflurane (2-3.5%) to alpha-chloralose (50-100 mg/kg). During control cystometry, saline was slowly infused into the bladder (0.5-1.0 ml/min) for 1 hour. The control cystometry was followed by 0.5% acetic acid in saline for the duration of the experiment. After assessing the cystometric variables under these baseline conditions, the effects of MCI-225 on bladder capacity were determined via a 3 point dose response protocol.
Data was analyzed using a non-parametric One-Way ANOVA (Friedman Test) with the post-hoc Dunn's multiple comparison t test. P<0.05 was considered significant.

[4] = target: T3, Monoamine Oxidase-B (MAO-B) (Homo sapiens, UniProt P27338); conditions: cited from earlier work
T3 sequence (P27338 1-520): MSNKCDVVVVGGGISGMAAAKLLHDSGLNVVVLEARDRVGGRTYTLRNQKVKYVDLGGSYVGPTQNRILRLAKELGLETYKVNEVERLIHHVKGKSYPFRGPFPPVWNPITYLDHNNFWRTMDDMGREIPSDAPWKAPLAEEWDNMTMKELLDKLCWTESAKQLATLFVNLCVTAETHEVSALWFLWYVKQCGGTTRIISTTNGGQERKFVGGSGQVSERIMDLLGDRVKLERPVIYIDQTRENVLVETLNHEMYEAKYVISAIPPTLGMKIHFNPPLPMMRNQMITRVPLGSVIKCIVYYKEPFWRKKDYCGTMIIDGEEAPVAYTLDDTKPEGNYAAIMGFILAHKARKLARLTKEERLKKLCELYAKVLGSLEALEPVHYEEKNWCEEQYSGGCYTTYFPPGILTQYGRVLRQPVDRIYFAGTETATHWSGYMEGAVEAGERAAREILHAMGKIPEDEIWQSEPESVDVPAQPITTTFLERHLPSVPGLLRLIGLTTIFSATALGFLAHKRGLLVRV

[5] = tested on: bladder capacity during acetic acid irritation; assay: Dilute Acetic Acid Model-rats, filling cystometry; assay type: in vivo, rat; conditions: for bladder capacity vs AA/Veh 3: rats, intraduodenal
Excerpt: Female rats (250-275 g BW, n=8) were anesthetized with urethane (1.2 g/kg) and a saline-filled catheter (PE-50) was inserted into the proximal duodenum for intraduodenal drug administration. A flared-tipped PE-50 catheter was inserted into the bladder dome, via a midline lower abdominal incision, for bladder filling and pressure recording and secured by ligation. The abdominal cavity was moistened with saline and closed by covering with a thin plastic sheet in order to maintain access to the bladder for emptying purposes. Fine silver or stainless steel wire electrodes were inserted into the external urethral sphincter (EUS) percutaneously for electromyography (EMG). Animals were positioned on a heating pad which maintained body temperature at 37° C.
Saline and all subsequent infusates were continuously infused at a rate of about 0.055 ml/min via the bladder filling catheter for about 60 minutes to obtain a baseline of lower urinary tract activity (continuous cystometry; CMG). […] Bladder capacity (ml) was calculated as the flow rate of the bladder filling solution (ml/min) multiplied by the elapsed time between commencement of bladder filling and occurrence of bladder contraction (min).
Following the control period, a 0.25% acetic acid solution in saline (AA) was infused into the bladder to induce bladder irritation. […] Following injection of the third vehicle control, bladder capacity was again measured, as described above but using AA to fill the bladder. […] Bladder capacity was measured as described above using AA to fill the bladder, at 20 and 50 minutes following each subsequent drug treatment.
Bladder capacity was determined for each treatment regimen as described above (flow rate of the bladder filling solution (ml/min) multiplied by the elapsed time between commencement of bladder filling and occurrence of bladder contraction (min)) and converted to % Bladder Capacity normalized to the last vehicle measurement of the AA/Veh 3 treatment group. Data were then analyzed by non-parametric ANOVA for repeated measures (Friedman Test) with Dunn's Multiple Comparison test. […]

[6] = preclinical and clinical studies, cited from earlier work

| Compound | pKi (5-HT3 receptor) | pIC50 [1] | inhibition of MAO-A activity [2] | anticholinergic activity (muscarinic receptors) | bladder capacity following acetic acid irritation ([3]; cats n=6, 3 point dose response 3, 10, 30 mg/kg, P<0.0103) | bladder capacity, individual dose significance ([3]; cats, 30 mg/kg, P<0.05) | inhibition of MAO-B activity [4] | bladder capacity (% normalized to AA/Veh 3) ([5]; rats n=8, intraduodenal, cumulative 3-30 mg/kg, p=0.0005 Friedman test) | bladder capacity vs AA/Veh 3 ([5]; 10 mg/kg, p<0.05 Dunn's test) | bladder capacity vs AA/Veh 3 ([5]; 30 mg/kg, p<0.001 Dunn's test) | blood levels of gabapentin after XP13512 ([6]; broad range of oral doses) | absorption from the large intestine [6] |
| --- | --- | --- | --- | --- | --- | --- | --- | --- | --- | --- | --- | --- |
| Cc1cc2c(-c3ccccc3F)nc(N3CCNCC3)nc2s1 [MCI-225, 4-(2-fluorophenyl)-6-methyl-2-(1-piperazinyl)thieno[2,3-d]pyrimidine] | > 7.00 | < 6.00 | did not inhibit | substantially no anticholinergic activity | significant dose-dependent increase in bladder capacity | individual dose significance attained | did not inhibit | dose-dependent increase in bladder capacity | significantly higher than AA/Veh 3 | significantly higher than AA/Veh 3 | – | – |
| CC(OC(=O)NCC1(CC(=O)O)CCCCC1)OC(=O)C(C)C (stereo not drawn) [XP13512] | – | – | – | – | – | – | – | – | – | – | dose proportional blood levels of gabapentin | absorbed efficiently from the large intestine |
